One assay concerns the target Der p 1 (Dermatophagoides pteronyssinus (European house dust mite), UniProt P08176). The assay is described as follows: Der p 1 enzyme activity assay (FRET fluorogenic substrate). Format: biochemical.
In assay [1] the test system is Brown Norway rats sensitized to HDM allergens. Nature of the assay: Allergen challenge study in vivo (acute allergic bronchoconstriction). Also noted: species or system rat. Conditions: challenge 2 hours after intratracheal dosing (100 μL of a 40 μM solution), P<0.05, Mann-Whitney Rank Sum Test. The procedure: The studies were performed in male Brown Norway rats (approximate weight 350 g at time of allergen challenge) obtained from Harlan UK Ltd. Each animal was allocated a unique identification number after sensitisation, identified by a waterproof tail mark, and randomly assigned to a treatment group. All studies were conducted in accordance with the Animals (Scientific Procedures) Act 1986, with UK Home Office Guidance on the implementation of the Act and with all applicable Codes of Practice for the care and housing of laboratory animals.
A mixture of HDM allergens was harvested from a laboratory culture of Dermatophagoides pteronyssinus. Allergen dose was standardized according to the Der p 1 content of the mixture as determined by an ELISA measurement referenced against the IUIS standard for Der p 1. […]
On Day 21 of the sensitization and challenge protocol, rats were anaesthetised with pentobarbitone (100 mg/kg, i.p.) and ventilated via a tracheal cannula (approximately 7 mL/kg, 1 Hz) with a mixture of air and oxygen (50:50). […] Ventilation was monitored by a flow transducer (Fleisch, type 0000) in-line with the respiratory pump. […] From these measurements of flow and differential pressure, both airways resistance (RL) and dynamic compliance (Cdyn) were calculated for each respiratory cycle on a digital electronic respiratory analyser (PMS, Mumed Ltd, UK). […]

The mark [2] stands for this setting: Table 1, read-out: Der p 1 IC50.
Setting [3] is: threshold stated in text, read-out: Der p 1 IC50.

Like-named read-outs stand apart in the source and are kept apart here.

Sequence of Der p 1 (P08176 99-320): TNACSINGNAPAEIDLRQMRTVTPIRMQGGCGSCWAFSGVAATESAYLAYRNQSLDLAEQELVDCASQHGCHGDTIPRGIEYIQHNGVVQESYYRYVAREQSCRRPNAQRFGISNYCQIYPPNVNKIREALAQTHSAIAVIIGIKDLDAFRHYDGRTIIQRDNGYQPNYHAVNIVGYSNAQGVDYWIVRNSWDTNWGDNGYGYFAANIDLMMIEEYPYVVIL

For `CC(C)[C@H](NC(=O)[C@H](C)NC(=O)[C@@H](NC(=O)c1ccncc1)C(C)(C)C)C(=O)C(=O)NC1CCCCC1` [PVA-038], the figures for the IC50 at Der p 1 (Der p 1 IC50) and at Der p 1 (setting [2]) were less than 20 nM and 13.3 nM, respectively. Also, in assay [1], the “magnitude of second allergen challenge (change in airway resistance) compared to first challenge” value is listed as “significantly reduced”.
The like results for `CC(C)[C@H](NC(=O)[C@H](C)NC(=O)[C@@H](NC(=O)c1ccccc1)C(C)(C)C)C(=O)C(=O)NC1CCCCC1` [PVA-026] were, in that order, less than 20 nM, 14 nM and “significantly reduced”.
`CC(C)[C@H](NC(=O)[C@H](C)NC(=O)[C@H](Cc1ccccc1)NC(=O)c1ccncc1)C(=O)C(=O)NCc1ccccc1` [PVA-099]: the IC50 at Der p 1 (setting [3]) was less than 20 nM.
Regarding `CC(C)[C@H](NC(=O)[C@H](C)NC(=O)[C@@H](NC(=O)c1ccc(OCc2nccn2C)cc1)C(C)(C)C)C(=O)C(=O)NC1CCCCC1` [PVA-077], at Der p 1 (setting [3]), the IC50 was less than 200 nM.
For the compound `CC(C)[C@H](NC(=O)[C@H](C)NC(=O)[C@@H](N1Cc2ccccc2C1=O)C(C)(C)C)C(=O)C(=O)NCc1ccc(N2CCN(C)CC2)cc1` [PVA-211], the half-inhibitory concentration (IC50) at Der p 1 (setting [3]) is less than 20 nM.
Same read-out and setting: then `CC(C)[C@H](NC(=O)[C@H](C)NC(=O)[C@H](Cc1ccccc1)NC(=O)c1ccccc1)C(=O)C(=O)NCCN1CCN(C)CC1` [PVA-098], with less than 200 nM.
For `CC(C)C(NC(=O)[C@H](C)NC(=O)[C@H](Cc1ccccc1)NC(=O)c1ccccc1)C(=O)C(=O)NCCN1CCCC1` (stereo partly shown) [PVA-025], at Der p 1 (setting [3]), the half-maximal inhibitory concentration (IC50) was less than 2000 nM.
Compound `CC(C)[C@H](NC(=O)[C@H](C)NC(=O)[C@@H](NC(=O)c1ccccc1)C(C)(C)C)C(=O)C(=O)NC1CN2CCC1CC2` (stereo partly shown) [PVA-119] had an IC50 on Der p 1 (Der p 1 IC50) of less than 200 nM.
Turning to `CC(C)[C@H](NC(=O)[C@H](C)NC(=O)[C@@H](NC(=O)c1ccccc1)C(C)(C)C)C(=O)C(=O)N[C@@H]1CCc2ccccc21` [PVA-109], the concentration for half-maximal inhibition (IC50) at Der p 1 (setting [3]) was less than 200 nM.
As to `CC(C)[C@H](NC(=O)[C@H](C)NC(=O)[C@@H](NC(=O)c1ccccc1)C(C)(C)C)C(=O)C(=O)NCC1CCN(C)CC1` [PVA-163], the IC50 at Der p 1 (setting [3]) is less than 200 nM.
Take `CC(C)[C@H](NC(=O)[C@H](C)NC(=O)[C@@H](NC(=O)c1ccc(N2CCN(C)CC2)cc1)C(C)(C)C)C(=O)C(=O)NCc1ccccc1` [PVA-176]: the half-maximal inhibitory concentration (IC50) at Der p 1 (setting [3]) is less than 200 nM.
`CC(C)[C@H](NC(=O)[C@H](C)NC(=O)[C@@H](NC(=O)c1ccccc1)C(C)(C)C)C(=O)C(=O)NCC(=O)N1CCc2ccccc2C1` [PVA-111] yielded an IC50 against Der p 1 (Der p 1 IC50) of less than 20 nM.
For `CCC[C@H](NC(=O)[C@H](Cc1ccccc1)NC(=O)c1ccccc1)C(=O)N[C@H](C(=O)C(=O)NC1CCCCC1)C(C)C` [PVA-088], the half-maximal inhibitory concentration (IC50) on Der p 1 (setting [3]) was less than 200 nM.
Consider `CC(C)[C@H](NC(=O)[C@H](C)NC(=O)[C@@H](NC(=O)c1ccccc1)C(C)(C)C)C(=O)C(=O)NCc1ccc(N2CCN(C)CC2)nc1` [PVA-195], for which, at Der p 1 (setting [3]), the half-inhibitory concentration (IC50) is less than 20 nM.
As to `CNC(=O)c1ccc(CNC(=O)C(=O)[C@@H](NC(=O)[C@H](C)NC(=O)[C@@H](N2Cc3ccccc3C2=O)C(C)(C)C)C(C)C)cc1` [PVA-209], the IC50 on Der p 1 (setting [3]) was less than 20 nM.
Still for that read-out and setting: the same measure for `CC(C)[C@H](NC(=O)[C@H](C)NC(=O)[C@@H](NC(=O)c1ccccc1)C(C)(C)C)C(=O)C(=O)N[C@@H](C)c1ccccc1` [PVA-133]: less than 200 nM.
Turning to `CCCC[C@H](NC(=O)[C@H](C)NC(=O)[C@@H](NC(=O)c1ccccc1)C(C)(C)C)C(=O)C(=O)NC1CCCCC1` [PVA-037], the results for the half-maximal inhibitory concentration (IC50) at Der p 1 (setting [2]) and at Der p 1 (setting [3]) were 7.85 nM and less than 20 nM, respectively.
Take `CC(C)[C@H](NC(=O)[C@H](C)NC(=O)[C@@H](NC(=O)c1cccc2nc[nH]c12)C(C)(C)C)C(=O)C(=O)NCc1ccccc1` [PVA-157]: the IC50 at Der p 1 (setting [3]) is less than 20 nM.
Regarding `CC(C)[C@H](NC(=O)[C@H](C)NC(=O)[C@@H](NC(=O)c1ccnc2ccccc12)C(C)(C)C)C(=O)C(=O)NCC(=O)N1CCc2ccccc2C1` [PVA-186], on Der p 1 (setting [3]), the 50% inhibitory concentration (IC50) was less than 20 nM.
Turning to `CC(C)C(NC(=O)[C@H](C)NC(=O)[C@@H](Cc1ccccc1)NC(=O)c1ccncc1)C(=O)C(=O)NC1CCCCC1` (stereo in doubt) [PVA-020], the IC50 on Der p 1 (setting [3]) was less than 200 nM.
For `CC(C)[C@H](NC(=O)[C@H](C)NC(=O)[C@@H](NC(=O)c1ccccc1)C(C)(C)C)C(=O)C(=O)NCc1ccc(CN(C)C)cc1` [PVA-164], the half-inhibitory concentration (IC50) at Der p 1 (setting [3]) is less than 20 nM.
Compound `CC(C)[C@H](NC(=O)[C@H](C)NC(=O)[C@H](Cc1ccccc1)NC(=O)c1ccccc1)C(=O)C(=O)NCC(=O)N1CCCCC1` [PVA-067] registered an IC50 at Der p 1 (Der p 1 IC50) of less than 20 nM.
Regarding `CC(C)[C@H](NC(=O)[C@H](C)NC(=O)[C@@H](N1Cc2ccccc2C1=O)C(C)(C)C)C(=O)C(=O)NCc1ccccc1` [PVA-129], on Der p 1 (setting [3]), the concentration for half-maximal inhibition (IC50) is less than 20 nM.

Usually IC50 stands for the point on the concentration scale where inhibition reaches its midpoint.

The values above are taken from patent publication US8541363B2, “Pyruvamide compounds as inhibitors of dust mite group 1 peptidase allergen and their use” (St George's Hosptial Medical School, priority 2010, dated 2013).
